System: dogs in hemorrhagic shock
Assay: Treatment effect of polydatin drug compositions to dogs in hemorrhagic shock (Embodiment 20)
Assay type: in vivo, Beagle dogs

NCCc1ccc(O)c(O)c1 [dopamine]
average survival time (hour, x ± s) (3.0 mg/kg, continuous intravenous infusion 120 min, long-term survival calculated with 168 hours): 103.00 ± 89.01 h
survival rate (24 hours, 3.0 mg/kg): 3 number/5
survival rate (48 hours, 3.0 mg/kg): 3 number/5
survival rate (72 hours, 3.0 mg/kg): 3 number/5
pulse pressure difference (FIG. 2) (dogs in hemorrhagic shock, during and after infusion): increasing range is obviously lower than the polydatin groups

From US20080261902A1, “Pharmaceutical composition containing polydatin and its application” (Shenzhen Neptunus Pharmaceutical Co., Ltd., priority 2005, published 2008)
